Assay results as given in the supplement of paper PMC11061612.

Tests used:
[1] = test system: ZR-75-30 (Breast Carcinoma); experiment: combination Emax (second highest fraction inhibited in the dose matrix, 72 h); higher = more inhibition; extreme values may be limits of the assay
How it was run: (§1)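 Cell lines in DMEM/F12 or RPMI with 10% FBS were plated in 1536-well plates, held 24 hours at 37°C, 5% CO2, then given two-drug dose matrices for 72 hours (DMSO typically 0.2%). Viability was read by CellTiter-Glo 2.0 luminescence and scaled as inhibition from 0 (vehicle wells) to 1 (blank wells). Combination Emax is the second-highest inhibition in the matrix; Bliss excess is observed combination effect minus expected EA + EB − EA·EB, EA and EB being single-agent effects.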

[2] = test system: P30-OHK (B-Lymphoblastic Leukemia); experiment: as above
How it was run: as §1

IST-MEL1 (Melanoma) = experiment: as above
How it was run: as §1

NCI-H2373 (Mesothelioma) = experiment: as above
How it was run: as §1

[3] = test system: DBTRG-05MG (Glioblastoma); experiment: as above
How it was run: as §1

GAK (Melanoma) = experiment: as above
How it was run: as §1

[4] = test system: PL4 (Pancreatic Carcinoma); experiment: as above
How it was run: as §1

[5] = test system: NCI-H1341 (Small Cell Lung Carcinoma); experiment: as above
How it was run: as §1

[6] = test system: MS-1 (Small Cell Lung Carcinoma); experiment: as above
How it was run: as §1

ES6 (Ewing's Sarcoma) = experiment: as above
How it was run: as §1

[7] = test system: OAW-28 (Ovarian Carcinoma); experiment: as above
How it was run: as §1

[8] = test system: SK-CO-1 (Colorectal Carcinoma); experiment: as above
How it was run: as §1

[9] = test system: MM1S (Plasma Cell Myeloma); experiment: as above
How it was run: as §1

[10] = test system: SiHa (Cervical Carcinoma); experiment: as above
How it was run: as §1

[11] = test system: NAMALWA (Burkitt's Lymphoma); experiment: as above
How it was run: as §1

T47D (Breast Carcinoma) = experiment: as above
How it was run: as §1

KALS-1 (Glioblastoma) = experiment: as above
How it was run: as §1

[12] = test system: NCI-H1341 (Small Cell Lung Carcinoma); experiment: Bliss excess, mean over the matrix (fraction); higher = more synergy
How it was run: as §1

[13] = test system: SKG-IIIa (Cervical Carcinoma); experiment: as above
How it was run: as §1

[14] = test system: SUP-M2 (T-Cell Non-Hodgkin's Lymphoma); experiment: as above
How it was run: as §1
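Throughout, for Bliss excess, mean over the matrix: after 72 h of two-drug dosing.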

SMILES	combination Emax [1]	combination Emax [2]	combination Emax (IST-MEL1 (Melanoma))	combination Emax (NCI-H2373 (Mesothelioma))	combination Emax [3]	combination Emax (GAK (Melanoma))	combination Emax [4]	combination Emax [5]	combination Emax [6]	combination Emax (ES6 (Ewing's Sarcoma))	combination Emax [7]	combination Emax [8]	combination Emax [9]	combination Emax [10]	combination Emax [11]	combination Emax (T47D (Breast Carcinoma))	combination Emax (KALS-1 (Glioblastoma))	Bliss excess [12]	Bliss excess [13]	Bliss excess [14]
CN(C)CCCOc1ccc(-c2ccc3ncc4c(c3c2)n(C2CCOCC2)c(=O)n4C)cn1 [AZD0156] + C=CCn1c(=O)c2cnc(Nc3ccc(N4CCN(C)CC4)cc3)nc2n1-c1cccc(C(C)(C)O)n1 [AZD1775] (first compound max 1 µM, partner max 1 µM)	0.156	0.678	0.551	0.408	0.175	0.745	0.445	0.675	0.877	0.306	0.27	0.562	0.732	0.143	0.974	0.343	0.855	-0.0201	-0.0565	0.0535
COc1cccc(OCCCN)c1-c1cc(Nc2cnc(C#N)cn2)n[nH]1 [Prexasertib] + CCc1c2c(nc3ccc(O)cc13)-c1cc3c(c(=O)n1C2)COC(=O)[C@]3(O)CC [SN-38] (first compound max 1 µM, 7x7, partner max 0.3 µM)	0.14	0.995	0.889	0.642	0.624	0.641	0.877	0.987	0.987	0.837	1	0.826	1	0.578	0.986	0.784	0.951	-0.0174	0.0683	-0.0099
Cn1cnc2c(F)c(Nc3ccc(Br)cc3Cl)c(C(=O)NOCCO)cc21 [Selumetinib] + CC(C)n1c(=O)n(C)c2cnc3cc(F)c(-c4ccc(OCCCN5CCCCC5)nc4)cc3c21 [AZD1390] (first compound max 10 µM, 7x7, partner max 0.3 µM)	0.0506	0.217	0.289	0.298	0.315	0.626	0.567	0.163	0.117	0.147	0.332	0.776	0.264	0.156	0.136	0.109	0.405	-0.0071	-0.0444	0.007
CN(C)CCCOc1ccc(-c2ccc3ncc4c(c3c2)n(C2CCOCC2)c(=O)n4C)cn1 [AZD0156] + C[C@@H]1COCCN1C2=NC(=NC(=C2)C3(CC3)[S@](=N)(=O)C)C4=C5C=CNC5=NC=C4 [AZD6738] (first compound max 1 µM, 7x7, partner max 10 µM)	0.189	0.877	0.745	0.588	0.251	0.703	0.718	0.849	0.873	0.557	0.39	0.721	0.698	0.234	0.96	0.282	0.868	0.0309	-0.0555	0.0555
Cc1c2c(nn1C)CSCc1cc(n(C)n1)CSc1cc(c3ccccc3c1)OCCCc1c(C(=O)O)n(C)c3c-2c(Cl)ccc13 [AZD5991] + CC1(C)CCC(CN2CCN(c3ccc(C(=O)NS(=O)(=O)c4ccc(NCC5CCOCC5)c([N+](=O)[O-])c4)c(Oc4cnc5[nH]ccc5c4)c3)CC2)=C(c2ccc(Cl)cc2)C1 [Venetoclax] (first compound max 1 µM, 7x7, partner max 1 µM)	0.779	0.996	0.2	0.161	0.158	0.523	0.234	0.634	0.76	0.255	0.687	0.16	0.99	0.137	0.994	0.434	0.305	0.132	-0.0115	0.0286
Cc1cc2ncnn2cc1Nc1ncc2c(n1)n(C1CCOCC1)c(=O)n2C [AZD7648] + C=CCn1c(=O)c2cnc(Nc3ccc(N4CCN(C)CC4)cc3)nc2n1-c1cccc(C(C)(C)O)n1 [AZD1775] (first compound max 10 µM, partner max 1 µM)	0.137	0.754	0.577	0.484	0.343	0.713	0.379	0.69	0.827	0.505	0.401	0.521	0.811	0.308	0.96	0.468	0.846	-0.0476	0.0237	0.0377
CS(=O)(=O)CCNCc1ccc(-c2ccc3ncnc(Nc4ccc(OCc5cccc(F)c5)c(Cl)c4)c3c2)o1 [Lapatinib] + C[C@@H](Oc1cc(-c2cnn(C3CCNCC3)c2)cnc1N)c1c(Cl)ccc(F)c1Cl [Crizotinib] (first compound max 10 µM, 7x7, partner max 10 µM)	0.83	0.972	0.811	0.559	0.332	0.75	0.884	0.898	0.941	0.953	0.75	0.94	0.962	0.252	0.942	0.525	0.801	0.0876	-0.0438	0.0299
C=CCn1c(=O)c2cnc(Nc3ccc(N4CCN(C)CC4)cc3)nc2n1-c1cccc(C(C)(C)O)n1 [AZD1775] + O=C(c1cc(Cc2n[nH]c(=O)c3ccccc23)ccc1F)N1CCN(C(=O)C2CC2)CC1 [Olaparib] (first compound max 1 µM, partner max 10 µM)	0.213	0.748	0.49	0.354	0.248	0.804	0.494	0.525	0.924	0.444	0.251	0.662	0.779	0.199	0.96	0.362	0.896	-0.0236	-0.0648	0.0276
CC1(C)CCC(CN2CCN(c3ccc(C(=O)NS(=O)(=O)c4ccc(NCC5CCOCC5)c([N+](=O)[O-])c4)c(Oc4cnc5[nH]ccc5c4)c3)CC2)=C(c2ccc(Cl)cc2)C1 [Venetoclax] + C[C@@H]1COCCN1C2=NC(=NC(=C2)C3(CC3)[S@](=N)(=O)C)C4=C5C=CNC5=NC=C4 [AZD6738] (first compound max 1 µM, 7x7, partner max 10 µM)	0.191	1	0.823	0.591	0.288	0.528	0.709	0.757	0.702	0.571	0.472	0.55	0.527	0.286	0.889	0.35	0.83	0.0142	-0.021	0.0239
CN(CCO)CC[C@H](CSc1ccccc1)Nc1ccc(S(=O)(=O)NC(=O)c2ccc(N3CCC([C@@H](O)c4ccccc4-c4ccc(Cl)cc4)CC3)cc2)cc1S(=O)(=O)C(F)(F)F [AZD4320] + C[C@@H](Nc1cc(F)cc(F)c1)c1cc(C(=O)N(C)C)cc2c(=O)cc(N3CCOCC3)oc12 [AZD8186] (first compound max 1 µM, 7x7, partner max 3 µM)	0.285	0.979	0.405	0.48	0.935	0.312	0.694	0.99	0.613	0.463	0.991	0.917	0.988	0.33	0.573	0.439	0.5	0.0517	-0.0066	0.0539
CC1(C)CCC(CN2CCN(c3ccc(C(=O)NS(=O)(=O)c4ccc(NCC5CCOCC5)c([N+](=O)[O-])c4)c(Oc4cnc5[nH]ccc5c4)c3)CC2)=C(c2ccc(Cl)cc2)C1 [Venetoclax] + Cc1cc2ncnn2cc1Nc1ncc2c(n1)n(C1CCOCC1)c(=O)n2C [AZD7648] (first compound max 1 µM, 7x7, partner max 10 µM)	0.123	0.569	0.41	0.39	0.209	0.204	0.357	0.444	0.445	0.37	0.152	0.229	0.229	0.18	0.459	0.32	0.693	0.0752	0.0161	0.0218
COc1nnc2ccc(N3CCC(c4ccc(OCCN5CCN(C)C(=O)[C@H]5C)cc4)CC3)nn12 [AZD5153] + C[C@@H]1COCCN1C2=NC(=NC(=C2)C3(CC3)[S@](=N)(=O)C)C4=C5C=CNC5=NC=C4 [AZD6738] (first compound max 1 µM, 7x7, partner max 10 µM)	0.34	1	0.789	0.565	0.307	0.605	0.756	0.955	1	0.585	0.851	0.714	0.778	0.639	0.914	0.637	0.812	0.0243	0.0105	-0.0205
CC1(C)CCC(CN2CCN(c3ccc(C(=O)NS(=O)(=O)c4ccc(NCC5CCOCC5)c([N+](=O)[O-])c4)c(Oc4cnc5[nH]ccc5c4)c3)CC2)=C(c2ccc(Cl)cc2)C1 [Venetoclax] + C1CN(CCC1(C(=O)N[C@@H](CCO)C2=CC=C(C=C2)Cl)N)C3=NC=NC4=C3C=CN4 [Capivasertib] (first compound max 1 µM, 7x7, partner max 3 µM)	0.312	0.678	0.36	0.422	0.209	0.152	0.197	0.551	0.36	0.47	0.134	0.187	0.978	0.282	0.534	0.373	0.714	0.0321	-0.0207	-0.0232
